Measurements: patent US20180311357A1, “EXTERNAL PREPARATION AND METHOD FOR PRODUCING SAME” (SEKISUI CHEMICAL CO., LTD., priority 2015, published 2018)

Conditions: pH 7
Protocol: In the present invention, the octanol/water partition coefficient is obtained as follows. After the chemical is added into a flask containing octanol and an aqueous buffer at pH 7, the mixture is shaken. Based on the chemical concentration in each phase, the octanol/water partition coefficient is calculated by the following equation. Octanol/water partition coefficient=Log 10(concentration in octanol phase/concentration in aqueous phase)

In the case of `O.O.O.O.O.O=P([O-])(O)C(O)(Cc1cccnc1)P(=O)(O)O.O=P([O-])(O)C(O)(Cc1cccnc1)P(=O)(O)O.[Na+].[Na+]` [hemipenta hydrate risedronate monosodium], the octanol/water partition coefficient is reported as −5.0.
